This note sets out measurements from patent publication US20090286837A1, “Oxadiazole compounds as urokinase inhibitors” (priority 2005, published 2009).

Molecules are shown by their SMILES.

The assay has as its system BN-472 metastasizing breast tumor. In words: anti-tumor and anti-metastatic efficacy in the BN-472 metastasizing breast tumor model. It counts as in vivo, brown Norwegian rats. The note with it: oral administration, daily doses of 0.2 or 2 mg/kg for three weeks, rats. On the procedure:
Experiments were carried out in order to investigate the anti-tumor efficacy and anti-metastatic efficacy of WX-771, WX-780 and WX-781.
The assay system used was the BN-472 metastasizing breast tumor in brown Norwegian rats. The kind of tumor tissue used is described, for example, in Kort et al., J. Natl. Cancer Inst. 72 (1984) 709-713. The rats were purchased from Harlan Nederland, NL 5960-AD Horst, the Netherlands, and were from six to eight weeks old with a weight of from 128 g to 170 g.
(4-Chlorobenzylsulfonyl-D-Ser-Gly-4-guanidinobenzyl-amide, hydrochloride salt) whose anti-tumor and anti-metastatic efficacy with subcutaneous injection had been disclosed was also studied for comparative purposes. For administration, 0.75 mg of WX-340 was dissolved in 20 ml of 5% (weight/volume) D-manitol in water and administered by subcutaneous injection in doses of 0.2 mg of drug/kg of rat.
A phosphatidylcholine vehicle was administered as control and was obtained by introducing 400 mg of soya phosphatidylcholine in 20 ml of phosphate-buffered saline and 400 μl of absolute ethanol. 0.8 ml of the suspension was administered orally to the rats as control.
WX-771 (7.5 mg) was introduced into 20 ml of a soya phosphatidylcholine solution as used also for the control. To administer 2 mg/kg, 0.8 ml of this suspension was administered orally. For a second group, the stock solution was diluted 1:10 to obtain a dose of 0.2 mg/kg when administering likewise 0.8 ml per rat.
WX-780 (7.5 mg) was introduced into 20 ml of a soya phosphatidylcholine suspension according to the above-described control suspension. To administer a dose of 2 mg/kg, the rats were given 0.8 ml of said suspension. To administer a dose of 0.2 mg/kg, the stock solution was diluted 1:10, with 0.8 ml per rat still being administered.
WX-781 (7.5 mg) was introduced into 20 ml of a soya phosphatidylcholine suspension according to the above-described control suspension. To administer a dose of 2 mg/kg, the rats were given 0.8 ml orally. To administer a dose of 0.2 mg/kg, the stock solution was diluted 1:10, with 0.8 ml/rat still being administered orally.
For the compound `CC(C)(C)C(=O)OC[C@@H](NS(=O)(=O)Cc1ccc(Cl)cc1)C(=O)NCC(=O)NCc1ccc(NC(=N)NOC(=O)C(C)(C)C)cc1` [WX-771], the anti-metastatic action result is “significant” and the anti-tumor action result was “significant”.
On to `C[C@@H](C(=O)NCc1ccc(Nc2noc(C(C)(C)C)n2)cc1)N(C)C(=O)[C@@H](COC(=O)C(C)(C)C)NS(=O)(=O)Cc1ccc(Cl)cc1` [WX-780], for which the anti-metastatic action result is “significant” and the anti-tumor action entry was “significant”.
For the compound `CC(C)(C)C(=O)OC[C@@H](NS(=O)(=O)Cc1ccc(Cl)cc1)C(=O)NCC(=O)NCc1ccc(Nc2noc(C(C)(C)C)n2)cc1` [WX-781], the anti-metastatic action result is “significant” and the anti-tumor action result is reported as “significant”.
